Drawing on US20230391760A1, “HETEROCYCLIC GLP-1 AGONISTS” (Gasherbrum Bio, Inc., priority 2020, published 2023), this text covers EC50 for nine compounds.

pEC50: −log10 of the molar value.

The target of this experiment is GLP-1 Receptor (Homo sapiens, UniProt P43220). The experiment can be described thus: GLP-1R agonist cAMP stimulation assay (HEK293/GLP1R/CRE-LUC cells, cAMP dynamic 2 Kit). Particulars: HEK293/CRE-Luc cell line stably expressing the GLP-1 Receptor, 30 min at 37° C. The format is cell-based. The protocol:
Activation of GLP-1 receptor is known to stimulate cyclic AMP (cAMP) production in cells which indicates primary coupling to the Gαs subunit of the G protein heterotrimeric complex. […] To optimize functional activity directed toward Gαs coupling, a HEK293/CRE-Luc cell line developed by HDB stably expressing the GLP-1 Receptor was used. 200×concentration of compound working solutions were prepared (Agilent Technologies Bravo) with 1/2 log serial dilution in 384-well Echo LDV plate (Labcyte, Cat #LP-0200). 50 nL/well 200× concentration of compound working solutions were moved to 384-well white low volume plate (Greiner,Cat #784075) using Labcyte ECHO550. 1×10^5 cells/mL HEK293/GLP1R/CRE-LUC(HD Biosciences) cell suspensions prepared with assay buffer[DPBS containing 0.5 mM IBMX(Sigma, Cat #15879) and 0.1% BSA (GENVIEW, Cat #FA016-100 g)], 10 uL cell suspensions were added to each well of previous generated assay plate which already contains 50 nl compound at 200×concentration using ThermoFisher Multidrop Combi (1000 cells/well). Seal the plate and incubate at 37° C. with 5% CO2 for 30 min. After incubation the cAMP assay signal was generated using cAMP dynamic 2 Kit (Cisbio). 5 μL cAMP-d2 working solution was added to each well, followed with 5 μL Anti-cAMP antibody-cryptate working solution added to each well using ThermoFisher Multidrop Combi. Incubate at room temperature for 1 hour protected from light.

Chain of GLP-1 Receptor (P43220 24-463, species assumed): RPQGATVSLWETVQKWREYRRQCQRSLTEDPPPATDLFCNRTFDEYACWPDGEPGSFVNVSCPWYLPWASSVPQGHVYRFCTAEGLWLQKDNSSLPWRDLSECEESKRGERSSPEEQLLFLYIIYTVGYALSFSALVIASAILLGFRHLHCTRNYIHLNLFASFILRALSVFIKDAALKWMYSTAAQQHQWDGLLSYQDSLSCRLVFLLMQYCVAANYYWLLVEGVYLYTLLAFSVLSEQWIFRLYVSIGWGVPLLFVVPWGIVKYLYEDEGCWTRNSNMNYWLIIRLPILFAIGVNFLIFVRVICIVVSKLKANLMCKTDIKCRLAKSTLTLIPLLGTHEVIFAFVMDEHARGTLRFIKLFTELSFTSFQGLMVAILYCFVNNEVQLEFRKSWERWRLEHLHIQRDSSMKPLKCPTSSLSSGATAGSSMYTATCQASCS

Regarding `COCCn1c(CN2CCC(c3cccc4c3OC(C)(c3ccc(Cl)cc3F)O4)CC2)nc2cc(-c3noc(=O)[nH]3)ccc21` (stereo not drawn) [Compound 230a, 3-(2-((4-(2-(4-chloro-2-fluorophenyl)-2-methylbenzo[d][1,3]dioxol-4-yl)piperidin-1-yl)methyl)-1-(2-methoxyethyl)-1H-benzo[d]imidazol-5-yl)-1,2,4-oxadiazol-5(4H)-one], the pEC50 (as a rule, the negative decadic logarithm of the EC50, by convention in mol/L) was 9.06.

`CC(=O)Nc1ccc2c(c1)nc(CN1CCC(c3cccc(OCc4ccc(Cl)cc4F)n3)CC1)n2C[C@@H]1CCO1` [Compound 101a, (S)—N-(2-((4-(6-((4-chloro-2-fluorobenzyl)oxy)pyridin-2-yl)piperidin-1-yl)methyl)-1-(oxetan-2-ylmethyl)-1H-benzo[d]imidazol-5-yl)acetamide] gave a pEC50 of 8.96.

Regarding `CC1(c2ccc(Cl)cc2F)Oc2cccc(C3CCN(Cc4nc5cc(-c6n[nH]c(=O)s6)ccc5n4C[C@@H]4CCO4)CC3)c2O1` (stereo partly drawn) [Compound 221a, 5-[2-({4-[2-(4-chloro-2-fluorophenyl)-2-methyl-2H-1,3-benzodioxol-4-yl]piperidin-1-yl}methyl)-1-{[(2S)-oxetan-2-yl]methyl}-1H-1,3-benzodiazol-5-yl]-2,3-dihydro-1,3,4-thiadiazol-2-one], the pEC50 was 8.13.

Regarding `C[C@]1(c2ccc(Cl)cc2F)Oc2cccc(C3CCN(Cc4nc5cc(-c6nnc(C(F)(F)F)[nH]6)ncc5n4CC4(C#N)CC4)CC3)c2O1` [Compound 345a, 1-{[2-({4-[(2S)-2-(4-chloro-2-fluorophenyl)-2-methyl-2H-1,3-benzodioxol-4-yl]piperidin-1-yl}methyl)-6-[5-(trifluoromethyl)-4H-1,2,4-triazol-3-yl]-3H-imidazo[4,5-c]pyridin-3-yl]methyl}cyclopropane-1-carbonitrile], the pEC50 was 10.85.

Compound `Cc1ccc(COc2cccc(C3CCN(Cc4nc5cc(-c6nnc(C(F)(F)F)[nH]6)ncc5n4C[C@@H]4CCO4)CC3)n2)c(F)c1` [Compound 496a, 2-[(2-fluoro-4-methylphenyl)methoxy]-6-{1-[(3-{[(2S)-oxetan-2-yl]methyl}-6-[5-(trifluoromethyl)-4H-1,2,4-triazol-3-yl]-3H-imidazo[4,5-c]pyridin-2-yl)methyl]piperidin-4-yl}pyridine] showed a pEC50 of 10.77.

The compound `CN1CCCC(C(=O)Nc2ccc3c(c2)nc(CN2CCC(c4cccc(OCc5ccc(Cl)cc5F)n4)CC2)n3C[C@@H]2CCO2)C1` (stereo partly drawn) [Compound 202a, N-{2-[(4-{6-[(4-chloro-2-fluorophenyl)methoxy]pyridin-2-yl}piperidin-1-yl)methyl]-1-{[(2S)-oxetan-2-yl]methyl}-1H-1,3-benzodiazol-5-yl}-1-methylpiperidine-3-carboxamide] had a pEC50 of 8.22.

Compound `O=c1[nH]c(-c2cnc3c(c2)nc(CN2CCC(c4cccc5c4OC[C@@H](c4ccc(Cl)cc4)O5)CC2)n3C[C@@H]2CCO2)no1` [Compound 407a, 3-[2-({4-[(2R)-2-(4-chlorophenyl)-2,3-dihydro-1,4-benzodioxin-5-yl]piperidin-1-yl}methyl)-3-{[(2S)-oxetan-2-yl]methyl}-3H-imidazo[4,5-b]pyridin-6-yl]-4,5-dihydro-1,2,4-oxadiazol-5-one] showed a pEC50 of 8.35.

In the case of `O=C(Nc1ccc2c(c1)nc(CN1CCC(c3cccc(OCc4ccc(Cl)cc4F)n3)CC1)n2C[C@@H]1CCO1)C1CCCOC1` (single isomer, unassigned) [Compound 154b], the pEC50 was 10.13.

`N#Cc1ccc(COc2cc(C3CCN(Cc4nc5cc(-c6nnc(C(F)(F)F)[nH]6)nnc5n4C[C@@H]4CCO4)CC3)ccc2F)c(F)c1` [Compound 521a, 3-fluoro-4-[(2-fluoro-5-{1-[(7-{[(2S)-oxetan-2-yl]methyl}-3-[5-(trifluoromethyl)-4H-1,2,4-triazol-3-yl]-7H-imidazo[4,5-c]pyridazin-6-yl)methyl]piperidin-4-yl}phenoxy)methyl]benzonitrile] showed a pEC50 of 9.29.
